The target in experiment [1] is human IRAK4 FL (Full Length) (Homo sapiens (Human), UniProt Q9NWZ3). As to the kind of experiment: IRAK4 Enzymatic DELFIA Assay, Protocol A. Format: biochemical.
Experiment [2] relates to R848-induced TNFα production by human peripheral blood mononuclear cells (PBMCs). As to the kind of experiment: R848 Induced TNFα in Human PBMC Assay. Format: cell-based. Particulars: Homo sapiens, PBMC, 3 h, read-out: R848-induced TNFa PBMC IC50 (nM).
The mark [3] stands for this setting: human IRAK4 FL, 0.6 mM ATP (KM), read-out: IRAK4 DELFIA Protocol A IC50.

The structures appear in SMILES notation. Where two headings read alike, the source gives them in different places.

human IRAK4 FL (Full Length), sequence (Q9NWZ3 whole entry): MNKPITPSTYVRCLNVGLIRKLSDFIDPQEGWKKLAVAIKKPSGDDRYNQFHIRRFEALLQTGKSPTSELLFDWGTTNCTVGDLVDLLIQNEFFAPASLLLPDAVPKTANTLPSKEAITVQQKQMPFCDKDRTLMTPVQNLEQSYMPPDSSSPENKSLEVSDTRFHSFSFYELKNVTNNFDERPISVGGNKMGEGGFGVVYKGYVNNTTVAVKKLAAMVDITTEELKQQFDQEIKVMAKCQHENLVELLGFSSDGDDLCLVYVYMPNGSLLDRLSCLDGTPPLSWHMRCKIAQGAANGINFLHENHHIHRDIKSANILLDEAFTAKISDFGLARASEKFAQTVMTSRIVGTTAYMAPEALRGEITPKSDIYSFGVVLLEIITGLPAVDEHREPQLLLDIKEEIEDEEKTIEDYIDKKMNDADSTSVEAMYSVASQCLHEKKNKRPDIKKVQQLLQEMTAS

For the compound `COC[C@@H]1CC(=O)N[C@@H]1COc1nccc2cc(C(N)=O)c(OC)cc12` [Example 340, 7-methoxy-1-{[(2S,3R)-3-(methoxymethyl)-5-oxopyrrolidin-2-yl]methoxy}isoquinoline-6-carboxamide], the IC50 (in general, the concentration that gives 50% inhibition) in experiment [1] (setting [3]) stood at 12 nM; in experiment [2], 456 nM.

Consider `CC(C)Oc1cc2c(OC[C@@H]3CCC(=O)N3)ncc(F)c2cc1C(N)=O` [Example 168, 4-fluoro-1-{[(2S)-5-oxopyrrolidin-2-yl]methoxy}-7-(propan-2-yloxy)isoquinoline-6-carboxamide], for which the IC50 was 6.6 nM in experiment [1] (setting [3]) and 1460 nM in experiment [2].

As to `C#CCOc1cc2c(OC[C@@H]3CCC(=O)N3)nccc2cc1C(N)=O` [Example 318, 1-{[(2S)-5-oxopyrrolidin-2-yl]methoxy}-7-(prop-2-yn-1-yloxy)isoquinoline-6-carboxamide], the IC50 came to 1940 nM in experiment [1] (setting [3]) and 17200 nM in experiment [2].

With `CC[C@@H]1[C@H](F)C(=O)N[C@@H]1COc1nccc2cc(C(N)=O)c(OCCOC)cc12` [Example 339, 1-{[(2S,3S,4S)-3-ethyl-4-fluoro-5-oxopyrrolidin-2-yl]methoxy}-7-(2-methoxyethoxy)isoquinoline-6-carboxamide], the IC50 in experiment [1] (setting [3]) turned out to be 90 nM; in experiment [2], 269 nM.

Turning to `COc1cc2c(OC[C@@H]3C[C@](C)(F)C(=O)N3)ccnc2cc1C(N)=O` [Example 268, 4-{[(2S,4S)-4-fluoro-4-methyl-5-oxopyrrolidin-2-yl]methoxy}-6-methoxyquinoline-7-carboxamide], the IC50 in experiment [1] (setting [3]) was found to be 1.4 nM; in experiment [2], 175 nM.

Take `CC(C)Oc1cc2c(OC[C@@H]3C[C@H](O)C(=O)N3)nccc2cc1C(N)=O` [Example 150, 1-{[(2S,4S)-4-hydroxy-5-oxopyrrolidin-2-yl]methoxy}-7-(propan-2-yloxy)isoquinoline-6-carboxamide]: the figures for the 50% inhibitory concentration (IC50) in experiment [1] (setting [3]) and in experiment [2] were 41 nM and 864 nM, respectively.

With `C=C[C@@H]1CC(=O)N[C@@H]1COc1nccc2cc(C(N)=O)c(OC)cc12` [Example 251, 1-{[(2S,3S)-3-ethenyl-5-oxopyrrolidin-2-yl]methoxy}-7-methoxyisoquinoline-6-carboxamide], the values for the 50% inhibitory concentration (IC50) in experiment [1] (setting [3]) and in experiment [2] were 3.4 nM and 72 nM, respectively.

Consider `CC[C@@H]1[C@H](OC)C(=O)N[C@@H]1COc1nccc2cc(C(N)=O)c(OC)cc12` [Example 342, 1-{[(2S,3S,4S)-3-ethyl-4-methoxy-5-oxopyrrolidin-2-yl]methoxy}-7-methoxyisoquinoline-6-carboxamide], for which the IC50 is 1000 nM in experiment [1] (setting [3]) and 2380 nM in experiment [2].

Turning to `CC[C@@H]1[C@H](O)C(=O)N[C@@H]1COc1nccc2cc(C(N)=O)c(OC)cc12` [Example 352, 1-{[(2S,3S,4S)-3-ethyl-4-hydroxy-5-oxopyrrolidin-2-yl]methoxy}-7-methoxyisoquinoline-6-carboxamide], the results for the IC50 in experiment [1] (setting [3]) and in experiment [2] were 3.3 nM and 557 nM, respectively.

As to `CC[C@@H]1[C@H](F)C(=O)N[C@@H]1COc1ccnc2cc(C(N)=O)c(OC)cc12` [Example 316, 4-{[(2S,3S,4S)-3-ethyl-4-fluoro-5-oxopyrrolidin-2-yl]methoxy}-6-methoxyquinoline-7-carboxamide], the IC50 was 129 nM in experiment [1] (setting [3]) and 464 nM in experiment [2].

`CC(C)Oc1cc2c(OC[C@@H]3C[C@@H](CC(F)(F)F)C(=O)N3)nccc2cc1C(N)=O` [Example 151, 1-{[(2S,4S)-5-oxo-4-(2,2,2-trifluoroethyl)pyrrolidin-2-yl]methoxy}-7-(propan-2-yloxy)isoquinoline-6-carboxamide]: the values for the IC50 in experiment [1] (setting [3]) and in experiment [2] were 1.2 nM and 25 nM, respectively.

Regarding `COc1cc2c(OC[C@@H]3COC(=O)N3)nccc2cc1C(N)=O` [Example 230, 7-methoxy-1-{[(4R)-2-oxo-1,3-oxazolidin-4-yl]methoxy}isoquinoline-6-carboxamide], the IC50 in experiment [1] (setting [3]) came out at 7 nM; in experiment [2], 199 nM.

`CC(C)Oc1cc2c(OC[C@@H]3COC(=O)N3)nccc2cc1C(N)=O` [Example 04, 1-{[(4R)-2-oxo-1,3-oxazolidin-4-yl]methoxy}-7-(propan-2-yloxy)isoquinoline-6-carboxamide]: the IC50 was determined as 6.6 nM in experiment [1] (setting [3]) and 1800 nM in experiment [2].

With `CC[C@H]1[C@@H](COc2nccc3cc(C(N)=O)c(OC)cc23)NC(=O)[C@@H]1N` [Example 357, 1-{[(2S,3R,4R)-4-amino-3-ethyl-5-oxopyrrolidin-2-yl]methoxy}-7-methoxyisoquinoline-6-carboxamide], the results for the half-maximal inhibitory concentration (IC50) in experiment [1] (setting [3]) and in experiment [2] were 30 nM and 588 nM, respectively.

As to `COc1cc2c(OC[C@H]3NC(=O)[C@@H](F)[C@H]3C)ccnc2cc1C(N)=O` [Example 250, 4-{[(2S,3S,4S)-4-fluoro-3-methyl-5-oxopyrrolidin-2-yl]methoxy}-6-methoxyquinoline-7-carboxamide], the IC50 in experiment [1] (setting [3]) came out at 0.6 nM; in experiment [2], 144 nM.

In the case of `CC(C)Oc1cc2c(OC[C@H]3NC(=O)[C@H](F)[C@H]3C)nccc2cc1C(N)=O` [Example 170, 1-{[(2S,3S,4R)-4-fluoro-3-methyl-5-oxopyrrolidin-2-yl]methoxy}-7-(propan-2-yloxy)isoquinoline-6-carboxamide], the IC50 in experiment [1] (setting [3]) was determined as 0.8 nM; in experiment [2], 41 nM.

As to `COc1cc2c(OC[C@@H]3C[C@@H](OC)C(=O)N3)cccc2cc1C(N)=O` [Example 232, 3-methoxy-5-{[(2S,4R)-4-methoxy-5-oxopyrrolidin-2-yl]methoxy}naphthalene-2-carboxamide], the IC50 in experiment [1] (setting [3]) stood at 20 nM; in experiment [2], 261 nM.

On to `CC(C)Oc1cc2c(OC[C@H]3NC(=O)[C@@H]4C[C@H]34)nccc2cc1C(N)=O` [Example 174, 1-{[(1S,2S,5R)-4-oxo-3-azabicyclo[3.1.0]hex-2-yl]methoxy}-7-(propan-2-yloxy)isoquinoline-6-carboxamide], for which the IC50 is 3.1 nM in experiment [1] (setting [3]) and 126 nM in experiment [2].

As to `COc1cc2c(OC[C@H]3NC(=O)C[C@H]3C)cccc2cc1C(N)=O` [Example 216, 3-methoxy-5-{[(2S,3R)-3-methyl-5-oxopyrrolidin-2-yl]methoxy}naphthalene-2-carboxamide], the IC50 in experiment [1] (setting [3]) was 0.4 nM; in experiment [2], 27 nM.

Regarding `COc1cc2c(OC[C@@H]3CC(F)(F)C(=O)N3)nccc2cc1C(N)=O` [Example 146, 1-{[(2S)-4,4-difluoro-5-oxopyrrolidin-2-yl]methoxy}-7-methoxyisoquinoline-6-carboxamide], the values for the IC50 in experiment [1] (setting [3]) and in experiment [2] were 0.2 nM and 15 nM, respectively.

As for `COc1cc2c(OC[C@@H]3CC4(CC4)C(=O)N3)nccc2cc1C(N)=O` [Example 245, 7-methoxy-1-{[(6S)-4-oxo-5-azaspiro[2.4]hept-6-yl]methoxy}isoquinoline-6-carboxamide], the IC50 in experiment [1] (setting [3]) worked out at 29 nM; in experiment [2], 529 nM.

Turning to `COc1cc2c(OC[C@H]3NC(=O)[C@@H](F)[C@H]3C)cccc2cc1C(N)=O` [Example 218, 5-{[(2S,3S,4S)-4-fluoro-3-methyl-5-oxopyrrolidin-2-yl]methoxy}-3-methoxynaphthalene-2-carboxamide], the IC50 in experiment [1] (setting [3]) worked out at 0.3 nM; in experiment [2], 11 nM.

For the compound `CC[C@H]1[C@@H](COc2nccc3cc(C(N)=O)c(OC)cc23)NC(=O)[C@@H]1O` [Example 353, 1-{[(2S,3S,4R)-3-ethyl-4-hydroxy-5-oxopyrrolidin-2-yl]methoxy}-7-methoxyisoquinoline-6-carboxamide], the IC50 was 0.5 nM in experiment [1] (setting [3]) and 20 nM in experiment [2].

For the compound `COc1cc2c(OC[C@H]3NC(=O)[C@]4(F)CC[C@H]34)nccc2cc1C(N)=O` [Example 322, 1-{[(1R,2S,5S)-5-fluoro-4-oxo-3-azabicyclo[3.2.0]hept-2-yl]methoxy}-7-methoxyisoquinoline-6-carboxamide], the IC50 in experiment [1] (setting [3]) worked out at 6.1 nM; in experiment [2], 26 nM.

Turning to `CC[C@@H]1C[C@@H](COc2nccc3cc(C(N)=O)c(OC(C)C)cc23)NC1=O` [Example 136, 1-{[(2S,4R)-4-ethyl-5-oxopyrrolidin-2-yl]methoxy}-7-(propan-2-yloxy)isoquinoline-6-carboxamide], the figures for the IC50 in experiment [1] (setting [3]) and in experiment [2] were 7.8 nM and 184 nM, respectively.

On to `COc1cc2c(OC[C@@H]3C[C@H](OC)C(=O)N3)cccc2cc1C(N)=O` [Example 231, 3-methoxy-5-{[(2S,4S)-4-methoxy-5-oxopyrrolidin-2-yl]methoxy}naphthalene-2-carboxamide], for which the values for the IC50 in experiment [1] and in experiment [2] were 67 nM and 509 nM, respectively.

Regarding `CC(C)Oc1cc2c(OC[C@H]3NC(=O)[C@@H](F)[C@H]3C)nccc2cc1C(N)=O` [Example 187, 1-{[(2S,3S,4S)-4-fluoro-3-methyl-5-oxopyrrolidin-2-yl]methoxy}-7-(propan-2-yloxy)isoquinoline-6-carboxamide], the 50% inhibitory concentration (IC50) turned out to be 1.1 nM in experiment [1] (setting [3]) and 40 nM in experiment [2].

`COc1cc2c(OCC3(C)COC(=O)N3)nccc2cc1C(N)=O` (centres unmarked) [Example 266, 7-methoxy-1-[(4-methyl-2-oxo-1,3-oxazolidin-4-yl)methoxy]isoquinoline-6-carboxamide]: the IC50 is 74 nM in experiment [1] (setting [3]) and 394 nM in experiment [2].

In the case of `COc1cc2c(OC[C@H]3NC(=O)[C@@](C)(F)[C@H]3C)nccc2cc1C(N)=O` [Example 238, 1-{[(2S,3S,4S)-4-fluoro-3,4-dimethyl-5-oxopyrrolidin-2-yl]methoxy}-7-methoxyisoquinoline-6-carboxamide], the IC50 in experiment [1] (setting [3]) worked out at 3.7 nM; in experiment [2], 45 nM.

With `CC(C)Oc1cc2c(OC[C@@H]3CCCC(=O)N3)nccc2cc1C(N)=O` [Example 06, 1-{[(2S)-6-oxopiperidin-2-yl]methoxy}-7-(propan-2-yloxy)isoquinoline-6-carboxamide], the IC50 in experiment [1] (setting [3]) was 51 nM; in experiment [2], 472 nM.

Consider `CC(C)Oc1cc2c(OC[C@@H]3C[C@@H](F)C(=O)N3)nccc2cc1C(N)=O` [Example 144, 1-{[(2S,4R)-4-fluoro-5-oxopyrrolidin-2-yl]methoxy}-7-(propan-2-yloxy)isoquinoline-6-carboxamide], for which the IC50 is 1.4 nM in experiment [1] (setting [3]) and 141 nM in experiment [2].

For the origin of these results see patent US10329302B2, “Bicyclic-fused heteroaryl or aryl compounds” (Pfizer Inc., priority 2014, dated 2019).
